Where a name gives a salt, the structure may show the parent alone.

The assay deals with anti-MTBE antibody prepared in Example 1 (anti-MTBE/7-methoxy-3,7-dimethyloctanal antibody). Nature of the assay: Anti-MTBE monoclonal antibody cross-reactivity, indirect competitive ELISA. The assay is classed as binding. The note with it: for IC50 (concentration of analyte required to inhibit the maximum assay signal B0 by 50%): B/B0=50%, read from FIG. 4. A general note: An ELISA detects its analyte on a solid surface through an enzyme-linked reagent.

On to `COC(C)(C)C` [MTBE, methyl tert-butyl ether], for which the “IC50 (concentration of analyte required to inhibit the maximum assay signal B0 by 50%)” value is around 10 µg/mL.
In the case of `CCC(C)(C)OC` [TAME, methyl tert-amyl ether], the “IC50 (concentration of analyte required to inhibit the maximum assay signal B0 by 50%)” value is around 10 µg/mL.
Take `CC(C)(C)O` [TBA, tert-butyl alcohol]: the “IC50 (concentration of analyte required to inhibit the maximum assay signal B0 by 50%)” value is around 180 µg/mL.
Same read-out and setting: the figure for `CC(C)(C)OC=O` [TBF, tert-butyl formate] is around 60 µg/mL.
`CO` [methanol]: the “cross-reactivity of the antibody” value (FIG. 4) is listed as “no significant cross-reactivity”.
